Measured values taken from US20050209104A1, “Dinoflagellate karlotoxins, methods of isolation and uses thereof” (priority 2002, published 2005).
In brackets after ≈: the same amount, converted by molar mass. Like-named read-outs stand apart in the source and are kept apart here. Marks after values point to notes of the source that are not given here.

Columns and labels:
[1] = system: rainbow trout erythrocytes; assay: Membrane lipid inhibition assay of KmTx 2 hemolytic activity; format: cell-based; details: for inhibition of the hemolytic activity of KmTx 2 by co-incubation: 0.001-10 μM sterol or lipid, KmTx 2 0.1, 0.5, 1 μg/ml
Protocol: To assess the inhibitory effects of exogenous membrane lipids on KmTx 2 hemolytic activity, the following sterols and lipids were tested: cholesterol, ergosterol, gymnodinosterol, and both natural and synthetic phosphatidylcholine. Cholesterol (5-cholesten-3β-ol) and L-α-phosphatidylcholine (brain, porcine) were purchased from Avanti Polar Lipids Inc. (Alabaster, Ala.); ergosterol (5,7,22-cholestatrien-24β-methyl-3β-ol) was purchased from Steraloids, Inc. (Newport, R.I.). Synthetic phosphatidylcholine (L-α-lecithin (β-γ-dipalmitoyl) was purchased from Calbiochem (San Diego, Calif.), Gymnodinosterol was isolated from filtered K. micrum (CCMP 2282) cells (isolation described in supplemental materials). KmTx 2: 0, 0.1, 0.5, and 1 μg/ml was added to solutions of Tris buffer +CaCl2 with either: 0, 0.001, 0.01, 0.1, 1 or 10 μM selected sterol or membrane lipid. Stock solutions of toxin and lipid were made in methanol and no more than 1% of each (2% total) was added to any given well. After brief mixing, these solutions were added 1: 1 with a diluted suspension of rainbow trout erythrocytes and hemolytic activity was assessed as described in supplemental materials.

[2] = system: rat embryonic fibroblast (REF 52) cells; assay: Ion permeation measurement, Ca^2+ flux with fura-2 (fibroblasts); format: cell-based; details: 0.2 μM
Protocol: The following cell types were tested for toxicity due to KmTx 2; rat embryonic fibroblast, rat intestional epithelial, and isolated rabbit primary sensory neurons. Cells were cultured on No. 1 glass coverslips and loaded with fluorescent indicator (fura-2) and were examined on an inverted epifluorescence microscope (model Diaphot; 40×CF Fluor objective, N.A. 1.30; Nikon Corp.) coupled to a spectrofluorometer (model CM1T10I, SPEX Industries) operating in the microfluorometry mode. Cells were bathed in 4 ml of Dulbecco's modified Eagle's medium (DMEM) buffered with HEPES (pH 7.4). KmTx 2 (stock solution in DMSO) was directly bath-applied with gentle convective mixing. Fura-2 was alternately excited at 340 and 380 nm. Fluorescence emission was passed through a 510-nm bandpass filter before photometric quantitation. DATAMAX software (SPEX Industries) was used for data acquisition and instrument control. Origin software (OriginLab Corp.) was used for data reduction and analysis

[3] = system: rainbow trout erythrocytes; details: for presence of hemolytic activity of copper solution: mixed with equal volume of 5% erythrocyte suspension
Protocol: The filtrate from water samples collected on Feb. […] Environmental water samples were allowed to thaw to room temperature and passed through a Sep-Pak Plus tC18 disposable cartridge (Waters Corp., Milford Mass.), attached to a vacuum manifold. The column was pre-equilibrated with methanol (20 ml) followed by H2O (20 ml). The cartridges were eluted with the following concentrations of MeOH/H2O: 100% H2O, 40%, 60%, 80%, and 100% MeOH (12 ml ea^−1). An aliquot of each elution was diluted, using Tris buffer +CaCl2, to give final dilutions ranging from 6 to 60% of original concentrations. […] The occurrence of hemolytic activity was determined by the absorbance of released hemoglobin, measured at 540 nm. Saponin (10 μg) served as a positive hemolysin control. Treatments were run in quadruplicate.
A hemolytic assay based on the lysis of fish erythrocytes was utilized to screen for bioactive materials. Cultures and culture fractions that were positive in the hemolytic assay were tested further using assays for ichthyotoxicity and cytotoxicity.
Blood was extracted from the caudal vein of rainbow trout (Oncorhynchus mykis) provided by the Center of Marine Biotechnology's Aquaculture Research Center. Needles were heparin (Sigma Chemical Co., St. Louis Mo.) treated and 10 units ml^−1 of additional heparin was added to whole blood samples to prevent clotting. […] Buffer pH was adjusted to 7.4 at 10° C. with 1N HCl, then filter sterilized (0.22 μm). […] Suspensions were stored at 4° C. for no longer than 10 days.
Hemolytic assays were performed by diluting test material in Tris buffer +CaCl2 (100 μl total) and adding this to a 5% erythrocyte suspension (100 μl). […] Assays were incubated on an orbital shaker (80-100 rpm) at 20° C. for 1 hour. Plates were then centrifuged at 2500 g for 5 min. and the supernatant (100 μl) was transferred to another flat bottom 96 well polystyrene plate, where the absorbance of released hemoglobin was read at 540 nm. Saponin (10 μg) (from Quillaja bark; Sigma Chemical Co., St. Louis Mo.) was used as a positive hemolysin control All treatments were run in quadruplicate.
LC50values and ranges were determined by Probit analysis (SPSS Base 10.0, SPSS Inc., Chicago Ill.).
Blood was extracted from the caudal vein of rainbow trout (Oncorhynchus mykis). […] Buffer pH was adjusted to 7.4 at 10° C. with 1N HCl, then filter sterilized (0.22 um). […] Blood suspensions were stored at 4° C. for no longer than 10 days.
Hemolysis assays were performed by diluting test material in Tris buFFer +CaCl2 (100 ul) and adding this to 100 ul of a 5% erythrocyte suspension for a total assay volume of 200 ul. […] Plates were incubated on an orbital shaker (80-100 rpm) at 20° C. for 1 hour. Plates were then centrifuged at 2000 g for 5 min. and the supernatant (100 ul) was transferred to a new flat bottom 96 well polystyrene plate, where the absorbance of released hemoglobin was read at 540 nm. Saponin (from Quillaja bark; Sigma Chemical Co., St. Louis Mo.) was used as a positive hemolysin control. Percent hemolysis (0-100%) was calculated from comparison to un-treated controls and samples treated with 10 ug saponin. All treatments were run in quadruplicate.
Hemolytic LC50 values were calculated from a dilution series of KmTx 2 and amphotericin B. LC50 values and ranges were determined by Probit analysis using a SPSS Base 10.0 statistical software package (SPSS Inc., Chicago, Ill.).

[4] = for % DECREASE of measured free copper: n = 2
Protocol: The first experiment involved the addition of EDTA ([…]) [as EDTA +4 Na·2 H2O ] to 0.9% NaCl solutions containing CuSO4·5 H2O (0.1, 0.5, 2.5, or 10 mg L^−1 Cu). Free Cu was measured using the porphyrin method (range 0-210 μg L^−1 ) (HACH, Loveland Colo.). […] Each solution, with and without EDTA, was assayed for hemolytic activity.

[5] = system: Aspergillus niger (ATCC 1004); assay: Anti-fungal broth microdilution assay (filamentous fungi); format: cell-based
Protocol: (§1) The following fungal strains were purchased from the American Type Culture Collection (Manassas, Va.), Aspergillus niger (ATCC 1004) as a representative filamentous fungi, and Candida albicans (ATCC 14053) as a representative yeast. Assays were performed according to the following National Committee for Clinical Laboratory Standards documents; M27-A2 Reference Method for Broth Dilution Antifungal Susceptibility Testing of Yeasts; Approved Standard—Second Edition([NCCLS, 2002), and M38-A Reference Method for Broth Dilution Antifungal Susceptibility Testing of Filamentous Fungi; Approved Standard (NCCLS, 2002). Procedures for the broth microdilution modification were followed for both species with the following exceptions; A. niger stocks were maintained on Potato Dextrose Agar at 25° C., while C. albicans was maintained on Yeast Malt Agar at 28° C., both according to ATCC recommendations. Amphotericin B was used as a positive control. Microdilution assays were performed in HyQ-RPMI-1640 media (HyClone, Logan, Utah.), with 2.05 mM L-glutamine, without sodium bicarbonate, pH 7.2 using dilutions of 1 mg/ml DMSO stocks of KmTx 2 and amphotericin B.
(§2) The following concentrations were tested for both KmTx2 and amphotericin B: 0.0625, 0.125, 0.25, 0.5, 1, 2, 4, 8, and 16 μg/ml. A maximum of 1.6% DMSO was added to any given well. Plates were incubated at 25 and 28° C., respectively, for A. niger and C. albicans. […] Amphotericin B and all culture media were purchased from Sigma-Aldrich (St. Louis, Mo.).

[6] = system: Candida albicans (ATCC 14053); assay: Anti-fungal broth microdilution assay (yeast); format: cell-based
Protocol: as §1, §2

[7] = system: sheepshead minnow (Cyprinodon variegatus) larvae; assay: Static acute larval fish ichthyotoxicity bioassay (sheepshead minnow); format: in vivo; details: algicide alone (control larvae without K. micrum)
Protocol: Ichthyotoxicity was evaluated using a static, acute (24-48 hour), small volume (2 ml), larval fish bioassay. Exposures were performed at 20° C. in 24-well non-tissue culture treated polystyrene plates (Becton Dickinson Labware, Franklin Lakes N.J.). Two species were utilized for ichthyotoxicity testing, zebrafish (Danio rerio) and sheepshead minnows (Cyprinodon variegatus), depending on their availability and salinity tolerance, with sheepshead minnows being tolerant to a wider range of salinities, but zebrafish being more readily obtainable in large numbers. Therefore, zebrafish, 5-<48 hrs old post-hatch, were used for toxic fraction testing, while sheepshead minnows, 3-<24 hours old post-hatch, were used to test whole dinoflagellate cultures. Larvae were not fed prior to or during testing. Previous experiments had shown that, at the biomass/water ratios used for each species, oxygen saturation remained >60% during the 48 hour exposure, as recommended in the Standard Guide for Conducting Acute Toxicity Tests with Fishes, Macroinvertebrates, and Amphibians (ASTM, 1992). All treatments were run in triplicate.
This experiment was run in triplicate. For these experiments, 12 psu ASW (Instant Ocean Brand) with added f/2-Si nutrient mixture (Guillard, 1975) and 1.5% soil extract and 0.3% chicken manure extract (alkalinity 75 mg L^−1 CaCO3) was used as the diluent. […]

[8] = system: Karlodinium micrum (CCMP 1974); assay: Dinoflagellate lysis due to copper sulfate and potassium permanganate (K. micrum); format: cell-based; details: exposures ≧2 mg L^−1 and only after 2 hours
striped bass fingerlings = details: comparable salinities, higher alkalinities (Reardon and Harrell, 1990); cited from earlier work
[9] = any concentration (0.0625-16 μg/ml) after 24 hours

CCCCCCCCCCCCCCCC(=O)OC[C@H](COP(=O)([O-])OCC[N+](C)(C)C)OC(=O)CCCCCCCCCCCCCCC [synthetic dipalmitoyl (16:0), L-α-lecithin (β-γ-dipalmitoyl)]
inhibition of the hemolytic activity of KmTx 2 by co-incubation [1]: no inhibition

CC(C)[C@H](C)C=C[C@@H](C)[C@H]1CCC2=C3CC[C@H]4[C@H](C)[C@@H](O)CC[C@]4(C)[C@H]3CC[C@@]21C [gymnodinosterol, (24S)-4α-methyl-5α-ergosta-8(14),22-dien-3β-ol]
inhibition of the hemolytic activity of KmTx 2 by co-incubation [1]: not inhibited

NC(=O)CC[C@@H]1NC(=O)[C@H](Cc2ccccc2)NC(=O)[C@H](Cc2ccc(O)cc2)NC(=O)[C@@H](N)CSSC[C@@H](C(=O)N2CCC[C@H]2C(=O)N[C@@H](CCCN=C(N)N)C(=O)NCC(N)=O)NC(=O)[C@H](CC(N)=O)NC1=O [vasopressin, reference compound]
cytosolic Ca^2+ levels [2]: spike in cytosolic Ca^2+ levels followed by rapid decline to level above baseline

CC(C)CCC[C@@H](C)[C@H]1CC[C@H]2[C@@H]3CC=C4C[C@@H](O)CC[C@]4(C)[C@H]3CC[C@]12C [cholesterol, 5-cholesten-3β-ol]
inhibition of the hemolytic activity of KmTx 2 by co-incubation [1]: inhibited
concentration at which complete inhibition was reached ([1]; co-incubation with KmTx 2): ca. 10 μM

O.O.O=C([O-])CN(CCN(CC(=O)[O-])CC(=O)[O-])CC(=O)[O-].[Na+].[Na+].[Na+].[Na+] [EDTA, EDTA +4 Na·2 H2O]
effect of EDTA on hemolytic activity due to Cu alone [3]: completely remove hemolytic activity
free Cu chelated ([4]; EDTA 2 mM, all concentrations tested): > 90%
% DECREASE of measured free copper ([4]; copper 0.2 mg L^−1, EDTA 2 mM): 96.3%
% DECREASE of measured free copper ([4]; copper 1 mg L^−1, EDTA 2 mM): 95.9%
% DECREASE of measured free copper ([4]; copper 5 mg L^−1, EDTA 2 mM): 90.4%
% DECREASE of measured free copper ([4]; copper 20 mg L^−1, EDTA 2 mM): 92.6%

CC(C)[C@@H](C)/C=C/[C@@H](C)[C@H]1CC[C@H]2C3=CC=C4C[C@@H](O)CC[C@]4(C)[C@H]3CC[C@]12C [ergosterol, 5,7,22-cholestatrien-24β-methyl-3β-ol]
inhibition of the hemolytic activity of KmTx 2 by co-incubation [1]: inhibited
concentration at which inhibition plateaued ([1]; co-incubation with KmTx 2): ca. 1 μM

L-α-phosphatidylcholine (brain, porcine) [natural brain phosphotidylcholine]
inhibition of the hemolytic activity of KmTx 2 by co-incubation [1]: no inhibition

C[C@@H]1[C@H](O)[C@@H](C)/C=C/C=C/C=C/C=C/C=C/C=C/C=C/[C@H](O[C@@H]2O[C@H](C)[C@@H](O)[C@H](N)[C@@H]2O)C[C@@H]2O[C@](O)(C[C@@H](O)C[C@@H](O)[C@H](O)CC[C@@H](O)C[C@@H](O)CC(=O)O[C@H]1C)C[C@H](O)[C@H]2C(=O)O [amphotericin B, reference compound]
hemolytic LC50 ([3]; probit analysis of dilution series): 3.759 µg/mL
growth [5, 9]: no growth was observed
Minimal inhibitory concentration (MIC) ([5]; lowest dose with no growth after 96 hours, 25° C.): 0.5 µg/mL (≈ 0.541 µM)
growth [6, 9]: no growth was observed
Minimal inhibitory concentration (MIC) ([6]; lowest dose with no growth after 96 hours, 28° C.): 0.125 µg/mL (≈ 0.135 µM)

O.O.O.O.O.O=S(=O)([O-])[O-].[Cu+2] [CuSO4, CuSO4·5 H2O]
presence of hemolytic activity of copper solution ([3]; copper 5 mg L^−1 without EDTA): 4.957*
presence of hemolytic activity of copper solution ([3]; copper 20 mg L^−1 without EDTA): 21.110*
mortality or epithelial damage of sheepshead minnow larvae [7]: No mortality or epithelial damage
Cell lysis [8]: occurred in K. micrum
96h LC50 (striped bass fingerlings): ca. 8 mg L^−1
